Among the data in PubChem BioAssay (NCI) are TGI and GI50 values, retold here.

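In this assay, cells in 96-well plates receive the compound at five concentrations for 48 hours. Endpoints are linearly interpolated between the surrounding concentrations. GI50 is the concentration that inhibits growth by half. TGI denotes the concentration required for complete inhibition of growth.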

Assay in all cases: NCI-60 cell line screen, 48 h
Test [1] has as its system 786-0 renal.
Test [2] relates to EKVX NSCLC.
Test [3] relates to HOP-62 NSCLC.
Test [4] concerns HT29 colon.
Test [5] has as its system KM12 colon.
Test [6] concerns M14 melanoma.
Test [7] relates to OVCAR-3 ovarian.
Test [8] concerns SF-539 CNS.
Test [9] deals with SR leukemia.
Test [10] deals with UACC-257 melanoma.

Turning to `CN(CC#N)C1CCCC[C@H]1O` (stereo not given in full), the TGI in test [1], in test [2], in test [3], in test [4], in test [5] and in test [6] was above 100 µM throughout. Also, the TGI in test [7], in [8], in test [9] and in [10] was above 100 µM in each case.

Regarding `O=c1c(O)cccc2cc(O)c(O)c(O)c12`, the GI50 in test [1] is 62.1 µM; in test [2] it was 19.1 µM; in test [3], above 100 µM; in test [4] it was 33.2 µM; in [5] it was 26.9 µM; in test [6], 30.6 µM. Also, the GI50 in test [7] is 6.57 µM; in test [8] it was 5.01 µM; in test [9], 3.76 µM; in test [10] it was 5.84 µM. The TGI in [1], in test [2], in test [3], in test [4], in [5] and in test [6] was above 100 µM each time. Also, the TGI in [7] was 32.3 µM; in test [8], above 100 µM; in test [9], above 100 µM; in test [10], above 100 µM.

For `CC(C)CC(=O)Nc1n[nH]c2c1CN(C(=O)C1CCN(C)CC1)C2(C)C`, the GI50 in [1] is 2.07 µM; in test [2], 1.14 µM; in [3], 1.2 µM; in test [4], 0.79 µM; in test [5] it was 0.72 µM; in test [6], 2.24 µM. Besides, the GI50 is 0.435 µM in test [7], 1.78 µM in [8], 0.135 µM in [9] and 1.19 µM in test [10]. Further, the TGI in test [1], in test [2], in test [3], in test [4], in test [5] and in test [6] was above 10 µM each time. The TGI in test [7] is 5.25 µM; in [8], 8.99 µM; in test [9], 2.59 µM; in test [10] it was above 10 µM.

Consider `CS(=O)(=O)CCNCc1ccc(-c2ccc3ncnc(Nc4ccc(OCc5cccc(F)c5)c(C(F)(F)F)c4)c3c2)o1`, for which the GI50 in test [1] was 4.68 µM; in [2] it was 3.12 µM; in [3], 4.03 µM; in test [4] it was 4.54 µM; in [5], 4.06 µM; in test [6] it was 4.36 µM. The GI50 was 4.07 µM in test [7], 4.59 µM in test [8], 6.34 µM in test [9] and 3.86 µM in [10]. The TGI in test [1] came out at 11.1 µM; in test [2] it was 9.94 µM; in test [3], 8.27 µM; in test [4] it was 8.92 µM; in test [5], 7.63 µM; in test [6], 8.67 µM. For the same compound, the TGI in test [7] amounted to 8.47 µM; in test [8] it was 12.3 µM; in [9] it was 19.4 µM; in test [10] it was 7.68 µM.

Regarding `O=C(Cc1csc(-c2nc(CC(=O)NNc3ccccc3)cs2)n1)NNc1ccccc1`, the TGI in test [1], in test [2], in test [3], in test [4], in test [5] and in [6] was above 100 µM in each case. In addition, the TGI in test [7] was above 100 µM; in [8] it was above 100 µM; in [9], 53.6 µM; in test [10] it was above 100 µM.

As for `CC(=O)[O-].[Mn+3].[O-]c1ccccc1C=NCCN=Cc1ccccc1[O-]`, the GI50 is above 100 µM in [1]; above 100 µM in test [2]; above 100 µM in test [3]; 92.3 µM in test [4]; 84.9 µM in [5]; above 100 µM in [6]. The GI50 in [7] is 17 µM; in test [8] it was above 100 µM; in [9], 70.9 µM; in test [10] it was 51.2 µM. Besides, the TGI in test [1], in test [2], in [3], in [4], in test [5] and in [6] was above 100 µM throughout. Also, the TGI in test [7], in test [8], in test [9] and in [10] was above 100 µM throughout.

For the compound `O=C(Nc1ccccc1O)c1ccc(CNc2ccnc(C(F)(F)F)c2)cc1`, the GI50 in [1] was 3.36 µM; in [2], 4.19 µM; in [3], 5.54 µM; in test [4], 6.42 µM; in [5] it was 7.01 µM; in [6] it was 3.86 µM. The GI50 in test [7] was 4.88 µM; in test [8], 1.89 µM; in test [9] it was 2 µM; in test [10], 8.4 µM. For the same compound, the TGI is 13.6 µM in test [1]; above 100 µM in [2]; 47.6 µM in test [3]; above 100 µM in test [4]; 23.3 µM in test [5]; 38 µM in test [6]. For the same compound, the TGI in test [7] is 21.9 µM; in test [8], 23.1 µM; in test [9], above 100 µM; in test [10] it was above 100 µM.

As to `CCOC(=O)C(=O)Nc1ccc(Cl)cc1C`, the TGI in [1], in test [2], in [3], in [4], in [5] and in test [6] was above 100 µM in each case. Moreover, the TGI in test [7], in [8], in [9] and in test [10] was above 100 µM in each case.

`O=C(O)c1cc2ccccc2c(N=Nc2cc(C(F)(F)F)ccc2Cl)c1O`: the TGI in [1], in test [2], in test [3], in [4], in [5] and in [6] was above 100 µM each time. In addition, the TGI in test [7], in test [8], in [9] and in [10] was above 100 µM throughout.
